What was measured:
[1] = Skin absorption, Franz diffusion cells with dermatomed skin explants; assay type: in vitro ADME
Experimental: The transdermal absorption tests are carried out using a modified methodology of Franz diffusion cells, in which a semi-permeable membrane is used, such as reconstructed skin or skin explants. The membrane is located between the (i) donor and (ii) receptor compartments with the stratum corneum facing upward. The product is applied to the exposed stratum corneum in the donor compartment. Under the membrane, the receiving chamber contains a solution that simulates physiological conditions and where the tested substances are highly soluble.
After the product is delivered to the surface of the skin, samples are taken from the receptor compartment at predetermined times to determine the amount of substance accumulated in the receptor compartment as a function of time. In addition, at the end of the test, the extraction of the substance that has been retained in the skin is carried out. For the quantification of all the samples obtained, a suitable analytical method is necessary for each substance investigated. The skin explants were dermatomed (the dermatome device allows to cut skin layers of the skin at a determined thickness) at 200 μm thickness and placed on Franz cells, the receptor compartment was filled with PBS solution, used to simulate the physiological fluid and allowed to equilibrate for at least 30 minutes. Then, receptor solution was added into the donor compartment and the integrity of the skin was determined. After removing the solution and drying the donor, the composition of the invention 3 μl/0.38 cm2 (7.9 uL/cm2) was administered into the donor compartment.
Samples from the receptor compartment were taken at predetermined times to obtain the amount of active permeated. Said samples were filtered on 0.2 μm pore size cellulose acetate filters and analyzed by HPLC. The sample volume taken was replaced with fresh receptor solution. After taking the last sample from the receptor compartment, a first wash of the skin surface was performed with PBS, then, the Franz cells were disassembled.
The skin was carefully dried and the stratum corneum was removed by tape stripping. Tapes were put in 2 mL of extraction medium for at least 2 hours. The skin diffusion area was cut into small pieces and placed in extraction liquid under continuous stirring for 1 hour. After filtering the samples obtained, they were analyzed by HPLC to obtain the amount of substance retained on the skin.

[2] = biological target: CB2 receptors (Homo sapiens, UniProt P34972); details: compared with THC; cited from earlier work
[3] = 2 hours after application of the composition to the skin
[4] = composition of the invention 7.9 uL/cm2 applied to skin explant, Franz cell

Chain of CB2 receptors (P34972 whole entry): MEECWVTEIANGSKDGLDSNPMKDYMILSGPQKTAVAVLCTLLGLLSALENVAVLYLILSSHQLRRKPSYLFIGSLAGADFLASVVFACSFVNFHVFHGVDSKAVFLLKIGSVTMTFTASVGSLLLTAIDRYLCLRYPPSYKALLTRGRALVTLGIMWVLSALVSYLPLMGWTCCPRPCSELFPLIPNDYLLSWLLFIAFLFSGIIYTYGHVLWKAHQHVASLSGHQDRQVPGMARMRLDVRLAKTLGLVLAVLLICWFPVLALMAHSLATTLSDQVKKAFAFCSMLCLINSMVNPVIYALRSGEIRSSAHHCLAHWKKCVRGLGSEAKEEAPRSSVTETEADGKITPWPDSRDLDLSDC

## C=C(C)[C@@H]1CCC(C)=C[C@H]1c1c(O)cc(CCCCC)cc1O [CBD, 2-[(1R,6R)-6-isopropenyl-3-methylcyclohex-2-en-1-yl]-5-pentylbenzene-1,3-diol]
[1]; 1 hour after application of the composition to the skin
  Permeation of CBD (receptor compartment): No permeation
[1]; [3]
  CBD in the stratum corneum (tape stripping): No CBD was found
  Permeation of CBD (receptor compartment): No permeation
[1]; [4]
  CBD absorbed in the skin: 2.38±1.52 μg CBD/cm^2
  CBD absorbed in the skin as share of the CBD applied on the top of the skin: 15.85%
[2]
  Affinity for CB2 receptors: very low affinity

Source: patent US20240156698A1, “BIOCIDE COMPOSITIONS AND USES THEREOF” (PHARMOTECH SA, priority 2021, published 2024)
